This note sets out measurements from ChEMBL document CHEMBL4007384, “Synthesis and optimization of furano[3,2-d]pyrimidines as selective spleen tyrosine kinase (Syk) inhibitors” (Bioorg Med Chem Lett, 2016).

≈ marks a conversion by molar mass, not a printed value. A value given as a limit tells only on which side of the number the result lay.

Series [1] deals with Cytochrome P450 3A4 (Homo sapiens, UniProt P08684). The experiment in a line: Time-dependent inhibition of CYP3A4 in human liver microsomes at 10 to 50 uM. In kind it is ADME. On the technique in general: Liver microsomes are vesicles of endoplasmic reticulum, rich in cytochrome P450 enzymes.
Chain of Cytochrome P450 3A4 (P08684 whole entry): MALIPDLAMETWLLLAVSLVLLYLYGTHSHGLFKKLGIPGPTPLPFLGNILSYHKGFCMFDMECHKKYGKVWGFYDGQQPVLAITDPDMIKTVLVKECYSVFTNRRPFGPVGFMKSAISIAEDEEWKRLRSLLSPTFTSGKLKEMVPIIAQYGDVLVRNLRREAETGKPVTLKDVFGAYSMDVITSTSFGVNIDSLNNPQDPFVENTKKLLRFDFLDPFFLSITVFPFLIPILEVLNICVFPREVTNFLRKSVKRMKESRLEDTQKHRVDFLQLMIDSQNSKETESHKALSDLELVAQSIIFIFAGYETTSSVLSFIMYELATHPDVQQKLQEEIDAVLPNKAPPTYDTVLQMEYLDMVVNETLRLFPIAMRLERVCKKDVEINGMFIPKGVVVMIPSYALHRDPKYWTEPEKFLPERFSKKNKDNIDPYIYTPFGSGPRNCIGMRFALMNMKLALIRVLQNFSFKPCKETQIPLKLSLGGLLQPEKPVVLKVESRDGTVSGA
Series [2] deals with CYP3A4 (Homo sapiens, UniProt P08684). The experiment in a line: Inhibition of CYP3A4 in human liver microsomes assessed as residual activity at 10 uM measured immediately relative to control. Type of series: ADME. The note with it: read-out: Activity.
Chain of CYP3A4 (P08684 whole entry): as above
Series [3] is described as follows: Solubility in pH 5 FeSSIF at 0.2 mg sonicated for 10 mins followed by incubation for 2 days by HPLC analysis. Type of series: physicochemical.
In series [4] the target is Protein kinase C zeta type (Homo sapiens, UniProt Q05513). The series can be described thus: Inhibition of PKCzeta (unknown origin) after 60 mins by TR-FRET assay. (In general: TR-FRET usually uses a lanthanide donor and a delayed reading to cut background.)
Chain of Protein kinase C zeta type (Q05513 whole entry): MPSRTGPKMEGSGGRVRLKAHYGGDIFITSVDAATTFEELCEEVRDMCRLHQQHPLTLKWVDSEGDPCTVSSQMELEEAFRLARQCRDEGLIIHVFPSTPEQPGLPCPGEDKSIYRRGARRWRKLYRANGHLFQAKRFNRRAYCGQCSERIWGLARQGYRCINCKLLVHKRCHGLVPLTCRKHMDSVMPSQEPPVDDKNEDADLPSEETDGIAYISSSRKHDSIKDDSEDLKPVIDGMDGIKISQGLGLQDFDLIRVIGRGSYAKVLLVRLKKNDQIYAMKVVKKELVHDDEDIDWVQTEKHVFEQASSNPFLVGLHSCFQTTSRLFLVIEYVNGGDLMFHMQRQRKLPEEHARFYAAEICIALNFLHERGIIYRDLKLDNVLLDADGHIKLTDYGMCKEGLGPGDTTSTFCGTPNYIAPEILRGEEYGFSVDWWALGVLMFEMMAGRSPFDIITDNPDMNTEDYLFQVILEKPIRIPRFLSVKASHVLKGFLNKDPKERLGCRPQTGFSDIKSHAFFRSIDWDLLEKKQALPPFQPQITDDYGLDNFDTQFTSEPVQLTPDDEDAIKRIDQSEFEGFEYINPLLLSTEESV
Series [5] concerns the target Cyclin-dependent kinase 2 (Homo sapiens, UniProt P24941). The experiment in a line: Inhibition of CDK2 (unknown origin) after 60 mins by TR-FRET assay.
Series [6] addresses Serine/threonine-protein kinase pim-2 (Homo sapiens, UniProt Q9P1W9). The series can be described thus: Inhibition of PIM2 (unknown origin) after 60 mins by TR-FRET assay.
The target of series [7] is RAC-alpha serine/threonine-protein kinase (Homo sapiens, UniProt P31749). The experiment in a line: Inhibition of AKT (unknown origin) after 60 mins by TR-FRET assay.
For series [8], the target named is Mitogen-activated protein kinase kinase kinase 10 (Homo sapiens, UniProt Q02779). The experiment in a line: Inhibition of MAP3K10 (unknown origin) after 60 mins by TR-FRET assay.
Chain of Mitogen-activated protein kinase kinase kinase 10 (Q02779 whole entry): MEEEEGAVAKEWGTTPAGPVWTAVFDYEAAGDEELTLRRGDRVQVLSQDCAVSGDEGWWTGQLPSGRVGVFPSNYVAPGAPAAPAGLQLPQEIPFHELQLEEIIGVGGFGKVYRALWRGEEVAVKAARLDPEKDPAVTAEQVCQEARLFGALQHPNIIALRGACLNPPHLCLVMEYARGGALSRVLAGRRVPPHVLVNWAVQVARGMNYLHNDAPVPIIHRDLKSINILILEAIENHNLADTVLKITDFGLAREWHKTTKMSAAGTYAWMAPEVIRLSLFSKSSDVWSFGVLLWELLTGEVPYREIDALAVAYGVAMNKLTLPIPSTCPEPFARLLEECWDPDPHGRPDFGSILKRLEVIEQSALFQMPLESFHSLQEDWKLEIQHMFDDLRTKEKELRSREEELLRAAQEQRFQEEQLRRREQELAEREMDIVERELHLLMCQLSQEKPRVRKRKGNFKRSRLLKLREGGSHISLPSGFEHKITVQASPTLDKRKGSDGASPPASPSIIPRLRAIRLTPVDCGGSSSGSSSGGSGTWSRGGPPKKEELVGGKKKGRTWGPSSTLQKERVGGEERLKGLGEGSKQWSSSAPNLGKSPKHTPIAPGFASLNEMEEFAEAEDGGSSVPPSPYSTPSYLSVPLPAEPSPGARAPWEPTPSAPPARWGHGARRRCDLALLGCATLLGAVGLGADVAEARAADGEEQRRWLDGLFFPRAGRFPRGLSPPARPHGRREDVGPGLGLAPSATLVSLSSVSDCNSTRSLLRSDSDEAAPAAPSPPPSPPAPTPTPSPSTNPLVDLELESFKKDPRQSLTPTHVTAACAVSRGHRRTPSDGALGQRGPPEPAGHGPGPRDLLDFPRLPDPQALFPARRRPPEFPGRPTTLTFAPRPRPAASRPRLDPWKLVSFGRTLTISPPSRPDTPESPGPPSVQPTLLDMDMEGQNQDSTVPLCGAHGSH
The target in series [9] is Serine/threonine-protein kinase B-raf (Homo sapiens, UniProt P15056). The experiment in a line: Inhibition of BRAF (unknown origin) after 60 mins by TR-FRET assay.
A short description of series [10]: Inhibition of CDK11 (unknown origin) after 60 mins by TR-FRET assay. Details: species or system Homo sapiens; call rule not given here.
The target of series [11] is Calcium/calmodulin-dependent protein kinase kinase 2 (Homo sapiens, UniProt Q96RR4). The experiment in a line: Inhibition of CAMKK2 (unknown origin) after 60 mins by TR-FRET assay.
The target in series [12] is Proto-oncogene tyrosine-protein kinase Src (Homo sapiens, UniProt P12931). The series can be described thus: Inhibition of SRC (unknown origin) after 60 mins by TR-FRET assay.
Chain of Proto-oncogene tyrosine-protein kinase Src (P12931 2-536 limits assumed): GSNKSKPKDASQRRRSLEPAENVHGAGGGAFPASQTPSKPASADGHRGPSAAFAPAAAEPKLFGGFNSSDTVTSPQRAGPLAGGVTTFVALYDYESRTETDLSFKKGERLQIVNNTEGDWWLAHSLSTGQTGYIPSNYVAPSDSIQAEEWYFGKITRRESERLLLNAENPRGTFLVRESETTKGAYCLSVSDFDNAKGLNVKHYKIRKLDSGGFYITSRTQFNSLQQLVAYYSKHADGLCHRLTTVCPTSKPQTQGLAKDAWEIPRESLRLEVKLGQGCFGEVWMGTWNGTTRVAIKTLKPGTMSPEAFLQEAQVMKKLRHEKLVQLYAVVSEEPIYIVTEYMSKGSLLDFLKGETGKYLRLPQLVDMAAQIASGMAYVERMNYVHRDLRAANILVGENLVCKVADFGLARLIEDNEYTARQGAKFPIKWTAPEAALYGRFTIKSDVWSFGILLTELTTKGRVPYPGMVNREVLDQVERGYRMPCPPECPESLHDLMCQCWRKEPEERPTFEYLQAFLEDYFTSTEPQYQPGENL
Series [13] addresses Epidermal growth factor receptor (Homo sapiens, UniProt P00533). The series can be described thus: Inhibition of EGFR (unknown origin) after 60 mins by TR-FRET assay.
A short description of series [14]: Unbound clearance in human microsomes. Type of series: ADME, Microsome.
Series [15] addresses Serine/threonine-protein kinase Sgk1 (Homo sapiens, UniProt O00141). The experiment in a line: Inhibition of SGK1 (unknown origin) after 60 mins by TR-FRET assay.
Series [16] deals with Dual specificity mitogen-activated protein kinase kinase 3 (Homo sapiens, UniProt P46734). The experiment in a line: Inhibition of MAP2K3 (unknown origin) after 60 mins by TR-FRET assay.
Chain of Dual specificity mitogen-activated protein kinase kinase 3 (P46734 whole entry): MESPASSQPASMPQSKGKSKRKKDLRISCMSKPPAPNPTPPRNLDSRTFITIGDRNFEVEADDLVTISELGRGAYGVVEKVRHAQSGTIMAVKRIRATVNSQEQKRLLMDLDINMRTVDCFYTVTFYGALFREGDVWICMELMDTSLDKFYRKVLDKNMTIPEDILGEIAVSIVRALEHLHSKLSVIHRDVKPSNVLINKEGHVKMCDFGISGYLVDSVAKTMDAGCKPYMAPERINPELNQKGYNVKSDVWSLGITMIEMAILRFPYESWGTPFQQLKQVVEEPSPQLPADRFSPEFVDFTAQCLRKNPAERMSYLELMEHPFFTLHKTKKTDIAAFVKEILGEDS
The target in series [17] is cGMP-dependent protein kinase 1 (Homo sapiens, UniProt Q13976). The experiment in a line: Inhibition of PKG1A (unknown origin) after 60 mins by TR-FRET assay.
Series [18] has as its target Epithelial discoidin domain-containing receptor 1 (Homo sapiens, UniProt Q08345). The experiment in a line: Inhibition of DDR1 (unknown origin) after 60 mins by TR-FRET assay.

Chain of Serine/threonine-protein kinase Sgk1 (O00141 whole entry): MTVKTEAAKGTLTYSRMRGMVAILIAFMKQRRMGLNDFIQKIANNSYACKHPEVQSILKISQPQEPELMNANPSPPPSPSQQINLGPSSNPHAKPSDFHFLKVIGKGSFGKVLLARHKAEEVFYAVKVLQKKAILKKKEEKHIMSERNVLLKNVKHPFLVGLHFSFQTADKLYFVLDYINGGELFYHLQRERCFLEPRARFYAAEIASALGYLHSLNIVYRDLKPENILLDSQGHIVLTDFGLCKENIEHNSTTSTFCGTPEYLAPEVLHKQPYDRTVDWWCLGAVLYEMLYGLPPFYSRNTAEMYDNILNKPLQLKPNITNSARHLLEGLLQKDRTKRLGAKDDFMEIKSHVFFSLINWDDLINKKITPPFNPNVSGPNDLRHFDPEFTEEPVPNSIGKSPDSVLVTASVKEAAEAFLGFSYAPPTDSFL
Chain of Epidermal growth factor receptor (P00533 whole entry): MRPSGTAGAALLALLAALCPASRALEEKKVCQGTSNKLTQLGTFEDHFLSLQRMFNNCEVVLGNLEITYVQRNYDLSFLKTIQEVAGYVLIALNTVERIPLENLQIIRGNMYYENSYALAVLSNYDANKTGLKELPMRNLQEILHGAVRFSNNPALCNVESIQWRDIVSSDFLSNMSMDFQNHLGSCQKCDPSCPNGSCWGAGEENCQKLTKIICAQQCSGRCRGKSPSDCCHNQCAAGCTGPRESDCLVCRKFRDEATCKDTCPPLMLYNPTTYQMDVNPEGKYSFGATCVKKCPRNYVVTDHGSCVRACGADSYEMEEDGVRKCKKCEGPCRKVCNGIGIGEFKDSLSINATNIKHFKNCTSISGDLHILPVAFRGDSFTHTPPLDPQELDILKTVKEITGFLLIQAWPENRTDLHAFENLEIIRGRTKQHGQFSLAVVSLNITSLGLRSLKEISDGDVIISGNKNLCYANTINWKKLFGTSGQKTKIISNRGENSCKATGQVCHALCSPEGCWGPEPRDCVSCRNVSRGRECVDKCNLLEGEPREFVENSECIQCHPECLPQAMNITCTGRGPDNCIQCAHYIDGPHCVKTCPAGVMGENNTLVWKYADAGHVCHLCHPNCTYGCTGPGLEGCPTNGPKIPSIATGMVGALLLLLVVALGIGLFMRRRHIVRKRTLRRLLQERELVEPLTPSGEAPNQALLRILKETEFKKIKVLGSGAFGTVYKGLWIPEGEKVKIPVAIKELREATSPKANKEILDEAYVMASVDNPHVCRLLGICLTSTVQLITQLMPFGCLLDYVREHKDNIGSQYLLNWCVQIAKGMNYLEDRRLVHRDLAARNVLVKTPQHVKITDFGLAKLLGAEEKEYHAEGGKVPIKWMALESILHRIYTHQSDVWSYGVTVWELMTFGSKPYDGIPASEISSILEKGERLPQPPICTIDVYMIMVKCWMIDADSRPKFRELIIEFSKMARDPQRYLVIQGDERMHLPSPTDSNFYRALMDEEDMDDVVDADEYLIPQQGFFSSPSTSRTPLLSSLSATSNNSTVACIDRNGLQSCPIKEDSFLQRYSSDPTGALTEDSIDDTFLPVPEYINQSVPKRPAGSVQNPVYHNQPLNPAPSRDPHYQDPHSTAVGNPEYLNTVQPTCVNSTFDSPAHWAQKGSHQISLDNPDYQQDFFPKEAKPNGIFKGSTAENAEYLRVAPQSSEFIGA
Chain of Serine/threonine-protein kinase pim-2 (Q9P1W9 whole entry): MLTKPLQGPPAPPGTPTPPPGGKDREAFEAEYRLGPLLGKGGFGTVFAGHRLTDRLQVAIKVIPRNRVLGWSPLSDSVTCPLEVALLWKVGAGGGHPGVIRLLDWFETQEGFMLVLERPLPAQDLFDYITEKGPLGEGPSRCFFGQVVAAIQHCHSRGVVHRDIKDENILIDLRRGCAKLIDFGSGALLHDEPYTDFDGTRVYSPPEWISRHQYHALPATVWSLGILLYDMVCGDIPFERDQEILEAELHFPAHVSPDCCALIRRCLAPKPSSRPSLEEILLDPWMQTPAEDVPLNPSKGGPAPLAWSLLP

Take `Cc1n[nH]c2cc(Nc3nc(NC4CC4)c4occc4n3)ccc12`: the TDI result in series [1] is “Active”. Further, the activity at 0 min, 10 µM in series [2] worked out at 94%. Also, the solubility (usually the dissolved amount per volume that the medium holds) at 48 h in [3] was 99 µM (≈ 31.7 µg/mL).

Regarding `CC1(C)OCC(=O)Nc2cc(Nc3nc(NCC(F)(F)F)c4occc4n3)ccc21`, the IC50 (in general, the point on the concentration scale where inhibition reaches its midpoint) in series [4] was more than 10 µM; in series [5], more than 10 µM; in series [6] it was more than 10 µM; in [7] it was more than 10 µM; in [8], 4.55 µM; in [9] it was more than 10 µM. Besides, the IC50 in series [10] is more than 10 µM; in [11], 1910 nM; in series [12], 156 nM; in series [13], more than 10 µM; in series [15], more than 10 µM; in series [16], more than 10 µM. Further, the IC50 in series [17] and in series [18] was more than 10 µM each time. For the same compound, in series [2], the activity at 0 min, 10 µM stood at 91%. In series [14], this compound registered a CL free of 10.2 L/h/kg. Also, the concentration in solution in series [3] (solubility at 48 h) came to 4.96 µM (≈ 2.09 µg/mL).
